Laboratory results as given in BindingDB's records for doi:10.7270/Q2NS0SCW (Burnham Center For Chemical Genomics, 2010).
pIC50: −log10 of the molar value.

Tests used:
[1] = biological target: Alkaline phosphatase, placental type (Homo sapiens, UniProt P05187); assay: PLAP enzyme inhibitors, dose response, selectivity assay for mouse IAP inhibitor project, biochemical, uHTS hits (AID 488879)
[2] = as above

Chain of Alkaline phosphatase, placental type (P05187 whole entry, looked up): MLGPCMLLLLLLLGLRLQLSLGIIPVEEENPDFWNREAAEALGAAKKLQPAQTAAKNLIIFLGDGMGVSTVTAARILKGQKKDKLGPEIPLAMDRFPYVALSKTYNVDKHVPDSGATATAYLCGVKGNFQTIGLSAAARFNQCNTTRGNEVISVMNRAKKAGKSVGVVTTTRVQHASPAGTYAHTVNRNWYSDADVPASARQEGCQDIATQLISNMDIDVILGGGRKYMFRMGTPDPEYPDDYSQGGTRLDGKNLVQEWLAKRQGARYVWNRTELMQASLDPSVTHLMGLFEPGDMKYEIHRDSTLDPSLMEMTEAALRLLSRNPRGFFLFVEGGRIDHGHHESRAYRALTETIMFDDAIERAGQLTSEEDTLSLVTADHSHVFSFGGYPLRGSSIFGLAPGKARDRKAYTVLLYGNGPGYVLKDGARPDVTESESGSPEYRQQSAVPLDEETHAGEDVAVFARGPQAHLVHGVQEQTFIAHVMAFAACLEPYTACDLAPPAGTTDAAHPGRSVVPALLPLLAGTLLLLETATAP

Row | pIC50 [1] | pIC50 [2] | SMILES
1 | < 4.00 |  | Cc1ccc(Cl)c2c1NC(=O)/C2=C1/NC(=S)NC1=O
2 | < 4.00 |  | Oc1ccc(C=Nn2c(O)csc2=S)c(O)c1O [3-[[(E)-[2,3-bis(oxidanyl)-4-oxidanylidene-cyclohexa-2,5-dien-1-ylidene]methyl]amino]-2-sulfanylidene-1,3-thiazolidin-4-one]
3 | < 4.00 |  | C#CCOCCOCCOCCNc1nc(N2CCN(C(=O)CCCCCCCCCCNC(=O)[C@@H](CCSC)n3cc(CCO)nn3)CC2)nc(N2CCN(C(=O)CCCCCCCCCCNC(=O)[C@H]([C@@H](C)CC)n3cc(CCCCCN)nn3)CC2)n1 [MLS002153719]
4 | < 4.00 |  | NS(=O)(=O)c1cc(C(=O)NNC2=c3ccccc3=NC2=O)ccc1Cl [2-chloro-5-[[(2-oxoindol-3-yl)amino]carbamoyl]benzenesulfonamide]
5 | < 4.00 |  | O=C1C=CC(C=NNC(=S)Nc2ccccc2[N+](=O)[O-])C=C1O (stereo not given) [MLS000417596]
6 | < 4.00 |  | Nc1nnc(CC(=O)N/N=C/C2C=C([N+](=O)[O-])C=C(Br)C2=O)s1 (stereo not given) [2-(5-azanyl-1,3,4-thiadiazol-2-yl)-N'-[(E)-(5-bromanyl-3-nitro-6-oxidanylidene-cyclohexa-2,4-dien-1-ylidene)methyl]ethanehydrazide]
7 | 4.66 |  | NS(=O)(=O)c1ccc(N=Nc2c(=O)[nH]n3c(=O)c4c([nH]c23)CCCC4)cc1 [SMR000231775]
8 |  | 5.27 | O=C1Nc2ccccc2/C1=C1/SC(=S)N(NC(=O)c2ccccc2)C1=O [N-[(5Z)-4-oxo-5-(2-oxo-1H-indol-3-ylidene)-2-sulfanylidene-3-thiazolidinyl]benzamide]
9 | < 4.00 |  | C#CCOCCOCCOCCNc1nc(N2CCN(C(=O)CCCCCCCCCCNC(=O)[C@H]([C@@H](C)CC)n3cc(CCCCN=C(N)N)nn3)CC2)nc(N2CCN(C(=O)CCCCCCCCCCNC(=O)[C@@H]([C@H](C)O)n3cc(C)nn3)CC2)n1 [GT-RI]
10 | < 4.00 |  | Cc1ccc(/C=C2\SC(=S)N(/N=C/C3C=C([N+](=O)[O-])C=CC3=O)C2=O)o1 (stereo not given) [(5Z)-5-[(5-methylfuran-2-yl)methylidene]-3-[[(E)-(3-nitro-6-oxocyclohexa-2,4-dien-1-ylidene)methyl]amino]-2-sulfanylidene-1,3-thiazolidin-4-one]
11 | < 4.00 |  | COc1cc(C=CC(=O)CC(=O)C=Cc2ccc(O)cc2)ccc1O [demethoxycurcumin]
12 | < 4.00 |  | COc1cc(C=Nn2c(O)csc2=S)ccc1O [3-[[(E)-(3-methoxy-4-oxidanylidene-cyclohexa-2,5-dien-1-ylidene)methyl]amino]-2-sulfanylidene-1,3-thiazolidin-4-one]
13 | < 4.00 |  | O=C(Nn1c(O)csc1=S)C(=O)Nn1c(O)csc1=S [SMR000349781]
14 | 4.74 |  | CC1NON=C1C(=O)NN=CC1=CC(=O)C(=O)C=C1 (stereo not given) [4-Methyl-furazan-3-carboxylic acid (3,4-dihydroxy-benzylidene)-hydrazide]
15 | < 4.00 |  | O=c1cc(O)cc2oc(-c3ccc(O)c(O)c3)c(O[C@@H]3O[C@H](CO)[C@@H](O)[C@H](O)[C@H]3O)c(O)c1-2 [Quercetin 3-O-beta-D-glucoside]
